This note sets out measurements from patent US9532994B2, “Agents and methods for enhancing bone formation by oxysterols in combination with bone morphogenic proteins” (THE REGENTS OF THE UNIVERSITY OF CALIFORNIA, priority 2003, dated 2017).

Data set [1] concerns M2-10B4 mouse marrow stromal cell line. The experiment in a line: Alkaline phosphatase (ALP) activity assay in M2 cells. The class given is cell-based. The following applies: for inhibition of oxysterol-induced alkaline phosphatase activity: with 22R+20S (2.5 μM each), 3 days, SC 10 μM, ACA 25 μM, MC 20 μM (FIGS. 9A, 9E). Here is the method: (§1) Cells: M2-10B4 mouse marrow stromal cell line obtained from American Type Culture Collection (ATCC, Rockville, Md., U.S.A.) was derived from bone marrow stromal cells of a (C57BL/6J×C3H/HeJ) F1 mouse, and support human and murine myelopoiesis in long-term cultures (as per ATCC) and have the ability to differentiate into osteoblastic and adipocytic cells. Unless specified, these cells were cultured in RPMI 1640 containing 10% heat-inactivated FBS, and supplemented with 1 mM sodium pyruvate, 100 U/ml penicillin, and 100 […] (all from Irvine Scientific).
Alkaline phosphatase activity assay: Colorimetric alkaline phosphatase (ALP) activity assay on whole cell extracts was performed as previously described. […]
Test 2: M2 cells were grown in RPMI medium containing 10% fetal bovine serum (FBS). At confluence, the cells were treated in RPMI containing 5% FBS plus ascorbate at 50 μg/ml and β-glycerophosphate at 3 mM to induce osteoblastic differentiation. Adipogenic differentiation was induced by treating the cells in growth medium plus 10 ˜M troglitazone. A vehicle (C) or oxysterol treatment was applied to cells in a variety of doses (in μM): 20S-Hydroxycholesterol, 25-Hydroxycholesterol, 22R-Hydroxycholesterol; 22S-Hydroxycholesterol; 7-ketocholesterol. Cells were always treated at 90% confluence. After 4 days, alkaline phosphatase activity was determined in whole cell lysates and normalized to protein. Alternatively, MSC cultures were prepared and treated with oxysterols as described above. Cells were treated at 90% confluence with the combination of 22R-Hydroxycholesterol and 20S-Hydroxycholesterol, each at 5 μM, for 4 to 96 hours. The oxysterols where removed and fresh media without oxysterols was added for a total duration of 96 hours. Alkaline phosphatase activity was measured in whole cell extracts and normalized to protein.
M2 cells were treated at 90% confluence with vehicle (C), or oxysterols 20S-Hydroxycholesterol or 22S-Hydroxycholesterol at (0.5 μM) or (1 μM), in the absence or presence of cytochrome P450 inhibitor (SKF525A 10 μM (+)). MSC cultures were also treated at 90% confluence with vehicle (C), or 20S-Hydroxycholesterol (2 μM), in the absence or presence of cytochrome P450 […] (Benzylimidazole 50 μM) or SKF525A (10 μM). After 4 days, alkaline phosphatase activity was measured in whole cell extracts and normalized to protein. […]

Data set [2] relates to M2 cells. Kind of data set: Adipogenesis of M2 cells, oil Red O staining and adipocyte count. The class given is cell-based, mouse. The conditions noted are these: 10 μM Tro, 10 μM oxysterols, alone or in combination, 10 days (FIG. 7). Here is the method:
(§2) Von Kossa and oil red O staining—Matrix mineralization in cell monolayers was detected by silver nitrate staining as previously described. Oil red O staining for detection of adipocytes was performed as previously described.
Test 1: M2 cells at 90% confluence were treated with vehicle (C), PPAR-γ activator, troglitazone 10 uM (Tro), alone or in combination with 10 μM oxysterols 20S-, 22R-, or 25S-hydroxycholesterol. After 8 days, adipocytes were identified by oil Red O staining and quantified by counting under a phase contrast microscope. FIG. 6A is a bar graph depicting the effect of oxysterols on reducing adipogenesis of MSC.
Test 2: (A) M2 cells at confluence were treated in RPMI containing 10% FBS with control vehicle or 10 μM troglitazone (Tro) in the absence or presence of 10 μM 20S or 22S oxysterols. After 10 days, adipocytes were visualized by oil Red O staining and quantified by light microscopy, shown in (B). Data from a representative of four experiments are shown, reported as the mean SD of quadruplicate determinations (p<0.001 for Tro vs. Tro+20S and Tro+22S). (C) M2 cells were treated at confluence with 10 μM Tro, alone or in combination with 10 μM 20S oxysterol. After 10 days, total RNA was isolated and analyzed for lipoprotein lipase (LPL), adipocyte P2 gene (aP2) or 18S rRNA expression by Northern blotting as described (Ref). Data from densitometric analysis of the Northern blot is shown in (D) as the average of duplicate samples, normalized to 18S rRNA.

Data set [3] has as its system M2-10B4 mouse marrow stromal cell line. Kind of data set: Matrix mineralization in M2 cells (von Kossa staining, 45Ca incorporation assay). The class given is cell-based. The following applies: for inhibition of oxysterol-induced mineralization: with 22R+20S (2.5 μM each), 10 days, 45Ca incorporation (FIGS. 9B, 9F). The procedure:
as §1, §2
^45Ca incorporation assay—Matrix mineralization in cell monolayers was quantified using the ^45Ca incorporation assay as previously described.
M2 cells at confluence were treated in osteogenic medium with control vehicle or 5 μM oxysterols, alone or in combination as indicated. After 14 days, mineralization was identified by a von Kossa staining, which appears black. FIG. 3C is a depiction of von Kossa staining of M2 cells exposed to various conditions.
M2 cells were treated with control vehicle (C) or a combination of 22R and 20S oxysterols at increasing concentrations. After 14 days, matrix mineralization in cultures was quantified using a ^45Ca incorporation assay. […] FIG. 3D is a bar graph depicting the effect of a combination of oxysterols at various doses on calcium incorporation in M2 cells.
(§3) Next, a combination of 22R and 20S oxysterols (RS, 2.5 μM each) were added in the presence or absence of SC as indicated. After 3 days, ALP activity was measured as described earlier. […] (B) M2 cells were treated as described in (A) and after 10 days matrix mineralization in cultures was quantified by a ^45Ca incorporation assay as described earlier. Results from a representative of three experiments are shown, reported as the mean±SD of quadruplicate determinations, normalized to protein concentration. (C) M2 cells were pretreated with 20 μM SC for 4 hours, followed by the addition of RS in the presence or absence of SC as described above. After 8 days, total RNA was isolated and analyzed for osteocalcin (Osc) and 18S rRNA expression by Northern blotting as previously described. Data from densitometric analysis of the Northern blot is shown in (D) as the average of duplicate samples, normalized to 18S rRNA. (E) M2 cells at confluence were pretreated for 2 hours with control vehicle (C), or PLA2 inhibitors ACA (25 μM) and MCOCF3 (MC, 20 μM), in osteogenic medium. Next, a combination of 22R and 20S oxysterols (RS, 2.5 μM) was added in the presence or absence of the inhibitors as indicated. After 3 days, ALP activity was measured as previously described. Data from a representative of three experiments are shown, reported as the mean±SD of quadruplicate determinations, normalized to protein concentration (p<0.01 for RS vs. RS+ACA and RS+MC). (F) M2 cells were treated as described in (E). After 10 days, matrix mineralization in cultures was quantified using a ^45Ca incorporation assay as previously described. Results from a representative of three experiments are shown, reported as the mean of quadruplicate determinations±SD, normalized to protein concentration (p<0.01 for RS vs. RS+ACA and RS+MC).
(A) M2 cells at confluence were pretreated for four hours with RPMI containing 1% FBS, followed by treatment with control vehicle or 5 μM 20S oxysterol for 1, 4, or 8 hours. Next total cell extracts were prepared and analyzed for levels of native or phosphorylated ERK (pERK) using specific antibodies as previously described.

Data set [4] relates to marrow stromal cells. The experiment in a line: Osteogenic activity/effects of oxysterol combinations in marrow stromal cells, readout not specified. The class given is cell-based, mouse. The conditions noted are these: NS-398 at 20 μM, M2 cells.
Data set [5] deals with M2 cells. Kind of data set: Non-toxic doses in M2 cell cultures. It is filed as cell-based, mouse.
For data set [6], the system named is osteocalcin mRNA in M2 cells. The experiment in a line: Northern blotting for osteocalcin mRNA in M2 cells. It is filed as cell-based, mouse. The conditions noted are these: TO treatment, after 10 days. The procedure: The extent of gene induction was determined by densitometry.
After 4 and 8 days, total RNA from duplicate samples was isolated and analyzed for osteocalcin (Osc) and 28S rRNA expression by Northern blotting as described. FIG. 3E is a radiogram of Northern blotting for osteocalcin mRNA in M2 cells exposed to a control or combination of oxysterols for 4 or 8 days. FIG. 3F is a bar graph depicting the relative demsometric units of osteocalcin mRNA in M2 cells exposed to a control or combination of oxysterols for 4 or 8 days. Data from densitometric analysis of the Northern blot is shown in (F) as the average of duplicate samples, normalized to 28S rRNA.
as §3, with “(E).” for “(E). After 10 days, matrix mineralization in cultures was quantified using a ^45Ca incorporation assay as previously described. Results from a representative of three experiments are shown, reported as the mean of quadruplicate determinations±SD, normalized to protein concentration (p<0.01 for RS vs. RS+ACA and RS+MC).”

On to `CC(C)CCC[C@@H](C)[C@H]1CC[C@H]2[C@@H]3C(=O)C=C4C[C@@H](O)CC[C@]4(C)[C@H]3CC[C@]12C` [7K, 7-ketocholesterol, reference compound], for which the “induction of alkaline phosphatase activity” value in data set [1] (10 μM oxysterols, osteogenic medium, 3 days (FIG. 3A)) was “did not induce”. Besides, the “adipogenesis induced by troglitazone” value in data set [2] is recorded as “unable to inhibit”.
For `CCCCC/C=C\C/C=C\C/C=C\C/C=C\CCCC(=O)C(F)(F)F` [AACOCF3], the “inhibition of oxysterol-induced alkaline phosphatase activity” value in data set [1] was “inhibited”. Moreover, the “inhibition of oxysterol-induced mineralization” value in data set [3] is “inhibited”.
For `CCCCCc1ccc(/C=C/C(=O)Nc2ccccc2C(=O)O)cc1` [ACA], in data set [1], the “inhibition of oxysterol-induced alkaline phosphatase activity” value is on record as “inhibited”. Besides, the “inhibition of oxysterol-induced mineralization” value in data set [3] is recorded as “inhibited”.
Regarding `CS(=O)(=O)Nc1ccc([N+](=O)[O-])cc1OC1CCCCC1` [NS-398], the “inhibition of osteogenic effects of oxysterol combination” value in data set [4] is reported as “negligible inhibitory effects”. This compound also came in with a highest non-toxic dose in data set [5] of 20 µM.
On to `COc1cccc(-c2cc(=O)c3ccccc3o2)c1N` [PD98059], for which the “inhibition of oxysterol-induced mineralization by ERK pathway inhibitor” value in data set [3] (20 μM PD with 22R+20S (5 μM each), 10 days (FIG. 10B)) is recorded as “inhibited”.
On to `CCCCC[C@H](O)/C=C/[C@H]1[C@H](O)CC(=O)[C@@H]1C/C=C\CCCC(=O)O` [PGE2, prostaglandin E2], for which the “reversal of effect of COX-1 inhibitor on oxysterol-induced alkaline phosphatase activity” value in data set [1] (1 μM PGE2, data not shown) is reported as “reversed”.
With `CCCC(C(=O)OCCN(CC)CC)(c1ccccc1)c1ccccc1.Cl` [SKF525A], in data set [1] (SKF525A 10 μM with 20S or 22S at 0.5 or 1 μM, 4 days (FIG. 5A)), the “effect on osteogenic effects of the oxysterols (alkaline phosphatase activity)” value is recorded as “potentiated”.
On to `O=S(=O)(c1ccccc1)N(CC(F)(F)F)c1ccc(C(O)(C(F)(F)F)C(F)(F)F)cc1` [TO, TO-901317], for which the “induction of osteocalcin gene expression” value in data set [6] was “did not induce”. Moreover, the “osteoblastic differentiation (alkaline phosphatase activity), LXR ligands” value in data set [1] (1-4 μM, 4 days (FIG. 8)) is “inhibited”. Moreover, the “inhibition of alkaline phosphatase activity” value in data set [1] (TO at 1-10 μM) is listed as “dose-dependent inhibition”. Besides, the alkaline phosphatase activity in data set [1] (ligands used at 10 μM, ±SD, control vehicle C: 18±2, p<0.01 for C vs. all ligands) worked out at 3±0.5 activity units/mg protein. Moreover, the induction of mineralization result in data set [3] (TO treatment, after 10 days) is “did not induce”.
Consider `CCCCC/C=C\C/C=C\C/C=C\C/C=C\CCCC(=O)O` [arachidonic acid], for which the “reversal of effect of PLA2 inhibitors on oxysterol-induced alkaline phosphatase activity” value in data set [1] (25 μM arachidonic acid, data not shown) is given as “reversed”.
